Laboratory results: ChEMBL document CHEMBL1201862, “PubChem BioAssay data set” (2004)
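Method: 48-hour compound exposure of cells in 96-well plates, five concentrations, linear interpolation of endpoints. The concentration for 50% growth inhibition is given as GI50.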 The source made the active and inactive calls. No stated cut-off is given here; in the data, active = GI50 up to about 1.1 µM and inactive = higher.

What was measured:
Assay in all cases: NCI tumour cell line growth inhibition, 48 h
[1] = system: M14
[2] = system: SNB-75
[3] = system: Hs-578T
[4] = system: ACHN
[5] = system: SK-MEL-2
[6] = system: SW-620
[7] = system: NCI-H460
[8] = system: UO-31
[9] = system: HCT-15
[10] = system: TK-10
[11] = system: HT-29
[12] = system: MDA-MB-435
[13] = system: SF-539
[14] = system: MOLT-4
[15] = system: HOP-62
[16] = system: MCF7
[17] = system: DU-145
[18] = system: NCI-H226
[19] = system: MDA-N

Row | SMILES | GI50 [1] | GI50 [2] | GI50 [3] | GI50 [4] | GI50 [5] | GI50 [6] | GI50 [7] | GI50 [8] | GI50 [9] | GI50 [10] | GI50 [11] | GI50 [12] | GI50 [13] | GI50 [14] | GI50 [15] | GI50 [16] | GI50 [17] | GI50 [18] | GI50 [19]
1 | Oc1ccc(/N=C/c2ccc(/C=N/c3ccc(O)cc3)cc2)cc1 | 17.1 µM (inactive) | 16.7 µM (inactive) | 23.6 µM (inactive) | 13.1 µM (inactive) | 21.2 µM (inactive) | 17.5 µM (inactive) | 24.4 µM (inactive) | 15.2 µM (inactive) | 15 µM | 18.1 µM (inactive) | 19.8 µM (inactive) | 16.3 µM (inactive) | 15.3 µM (inactive) | 3.88 µM (inactive) | 17.6 µM (inactive) | 22.9 µM (inactive) | 18 µM (inactive) | 14.6 µM (inactive) | –
2 | CN1C/C(=C\c2cccs2)C2=NC(=S)NC(c3cccs3)C2C1 (stereo unspecified) | 55.2 µM (inactive) | – | > 100 µM (inactive) | 64.9 µM (inactive) | > 100 µM (inactive) | > 100 µM (inactive) | 50.6 µM (inactive) | 38.3 µM (inactive) | 77.6 µM | 46.1 µM (inactive) | 68.7 µM (inactive) | 43.9 µM (inactive) | – | 19.5 µM (inactive) | > 100 µM (inactive) | 35.6 µM (inactive) | > 100 µM (inactive) | > 100 µM (inactive) | 66.1 µM (inactive)
3 | Cc1ccc(S(=O)(=O)NC(=O)NS(=O)(=O)O)cc1 | > 100 µM (inactive) | > 100 µM (inactive) | > 100 µM (inactive) | > 100 µM (inactive) | > 100 µM (inactive) | > 100 µM (inactive) | > 100 µM (inactive) | > 100 µM (inactive) | > 100 µM | > 100 µM (inactive) | > 100 µM (inactive) | – | > 100 µM (inactive) | > 100 µM (inactive) | > 100 µM (inactive) | > 100 µM (inactive) | > 100 µM (inactive) | – | > 100 µM (inactive)
4 | O=C1CC(c2cccc(Br)c2)n2cccc21 (stereo unspecified) | 80.7 µM (inactive) | 35.3 µM (inactive) | 28.2 µM (inactive) | 68.5 µM (inactive) | 29 µM (inactive) | > 100 µM (inactive) | – | 21.5 µM (inactive) | 92.9 µM | > 100 µM (inactive) | 93.1 µM (inactive) | > 100 µM (inactive) | > 100 µM (inactive) | 40.1 µM (inactive) | > 100 µM (inactive) | 86.9 µM (inactive) | > 100 µM (inactive) | 92.9 µM (inactive) | –
5 | CCOC(=O)c1c(-c2ccc(O)c(OC)c2)c(C#N)c(=S)n(C2OC(CO)C(O)C(O)C2O)c1-c1ccccc1 (stereo unspecified) | > 100 µM (inactive) | – | > 100 µM (inactive) | > 100 µM (inactive) | – | > 100 µM (inactive) | > 100 µM (inactive) | > 100 µM (inactive) | > 100 µM | – | > 100 µM (inactive) | > 100 µM (inactive) | – | 54.3 µM (inactive) | > 100 µM (inactive) | > 100 µM (inactive) | > 100 µM (inactive) | 13 µM (inactive) | > 100 µM (inactive)
6 | CN(C)CCC(C(=O)C(C)(C)C)c1ccccn1 (stereo unspecified) | > 100 µM (inactive) | > 100 µM (inactive) | > 100 µM (inactive) | > 100 µM (inactive) | > 100 µM (inactive) | > 100 µM (inactive) | > 100 µM (inactive) | > 100 µM (inactive) | > 100 µM | > 100 µM (inactive) | > 100 µM (inactive) | > 100 µM (inactive) | – | – | > 100 µM (inactive) | > 100 µM (inactive) | > 100 µM (inactive) | > 100 µM (inactive) | > 100 µM (inactive)
7 | CN(C)C(=O)c1nnsc1NN=O | > 100 µM (inactive) | > 100 µM (inactive) | > 100 µM (inactive) | > 100 µM (inactive) | > 100 µM (inactive) | > 100 µM (inactive) | > 100 µM (inactive) | > 100 µM (inactive) | > 100 µM | – | > 100 µM (inactive) | > 100 µM (inactive) | – | > 100 µM (inactive) | > 100 µM (inactive) | > 100 µM (inactive) | > 100 µM (inactive) | > 100 µM (inactive) | > 100 µM (inactive)
8 | Cc1cccc2c1Oc1cc(Cl)ccc1C2NC(=O)CCN1CCOCC1 (stereo unspecified) | > 100 µM (inactive) | 21.8 µM (inactive) | – | – | – | > 100 µM (inactive) | > 100 µM (inactive) | 49.8 µM (inactive) | > 100 µM | > 100 µM (inactive) | 61.8 µM (inactive) | > 100 µM (inactive) | > 100 µM (inactive) | 49.4 µM (inactive) | > 100 µM (inactive) | > 100 µM (inactive) | > 100 µM (inactive) | – | > 100 µM (inactive)
9 | CC(=O)c1c2c(cc3c1CC1(C3)Cc3cc4c(c(C(C)=O)c3C1)CCCC4)CCCC2 | > 100 µM (inactive) | – | > 100 µM (inactive) | 27.9 µM (inactive) | 19.7 µM (inactive) | – | – | 0.104 µM (active) | 51.5 µM | > 100 µM (inactive) | 63.2 µM (inactive) | 57.7 µM (inactive) | > 100 µM (inactive) | 18.4 µM (inactive) | > 100 µM (inactive) | 56.2 µM (inactive) | – | > 100 µM (inactive) | 38.4 µM (inactive)
10 | CCOC(=O)C(Br)(C(N)=O)C1(O)OC(c2ccccc2)=C(Br)C1=O (stereo unspecified) | 28.4 µM (inactive) | – | 50.7 µM (inactive) | 17.5 µM (inactive) | 42.3 µM (inactive) | 20 µM (inactive) | > 100 µM (inactive) | 21.2 µM (inactive) | 16.7 µM | 16.7 µM (inactive) | 20.7 µM (inactive) | 30.5 µM (inactive) | 18.2 µM (inactive) | – | 32.1 µM (inactive) | 19.2 µM (inactive) | 44.6 µM (inactive) | 19.2 µM (inactive) | –
11 | CC(=O)OCC1OC(n2c(C)c(C)c(C)c(C#N)c2=S)C(OC(C)=O)C(OC(C)=O)C1OC(C)=O (stereo unspecified) | 44 µM (inactive) | 80 µM (inactive) | – | 48.5 µM (inactive) | 31.9 µM (inactive) | > 100 µM (inactive) | > 100 µM (inactive) | 14.7 µM (inactive) | > 100 µM | 46.6 µM (inactive) | > 100 µM (inactive) | > 100 µM (inactive) | 69.7 µM (inactive) | > 100 µM (inactive) | 13.3 µM (inactive) | > 100 µM (inactive) | > 100 µM (inactive) | > 100 µM (inactive) | > 100 µM (inactive)
12 | CCN(CCC#N)C(=O)Nc1ccccc1 | > 100 µM (inactive) | 93.1 µM (inactive) | – | > 100 µM (inactive) | > 100 µM (inactive) | > 100 µM (inactive) | > 100 µM (inactive) | > 100 µM (inactive) | > 100 µM | > 100 µM (inactive) | > 100 µM (inactive) | > 100 µM (inactive) | > 100 µM (inactive) | > 100 µM (inactive) | > 100 µM (inactive) | > 100 µM (inactive) | > 100 µM (inactive) | > 100 µM (inactive) | > 100 µM (inactive)
13 | Clc1cccc(-c2sc(-c3ccsc3)cc2Cc2ccsc2)c1 | > 10 µM (inactive) | > 10 µM (inactive) | – | – | – | > 10 µM (inactive) | – | – | > 10 µM | > 10 µM (inactive) | > 10 µM (inactive) | > 10 µM (inactive) | – | > 10 µM (inactive) | > 10 µM (inactive) | > 10 µM (inactive) | > 10 µM (inactive) | – | > 10 µM (inactive)
14 | O=C1c2cc(I)ccc2N2CCN=C2N1Cc1ccccc1 | > 100 µM (inactive) | 19.7 µM (inactive) | 72.1 µM (inactive) | 51.2 µM (inactive) | > 100 µM (inactive) | > 100 µM (inactive) | > 100 µM (inactive) | 57.4 µM (inactive) | > 100 µM | > 100 µM (inactive) | > 100 µM (inactive) | > 100 µM (inactive) | 37.5 µM (inactive) | 4.46 µM (inactive) | > 100 µM (inactive) | > 100 µM (inactive) | > 100 µM (inactive) | > 100 µM (inactive) | –
15 | O=C(O)CCCc1ccc2c(c1)C(C(=O)O)CC2 (stereo unspecified) | > 100 µM (inactive) | > 100 µM (inactive) | > 100 µM (inactive) | > 100 µM (inactive) | > 100 µM (inactive) | > 100 µM (inactive) | > 100 µM (inactive) | > 100 µM (inactive) | > 100 µM | > 100 µM (inactive) | > 100 µM (inactive) | – | > 100 µM (inactive) | > 100 µM (inactive) | > 100 µM (inactive) | > 100 µM (inactive) | > 100 µM (inactive) | > 100 µM (inactive) | > 100 µM (inactive)
16 | O=C(O)c1ccccc1C(=O)Nn1cnnc1 | > 100 µM (inactive) | > 100 µM (inactive) | – | > 100 µM (inactive) | > 100 µM (inactive) | > 100 µM (inactive) | – | > 100 µM (inactive) | > 100 µM | > 100 µM (inactive) | > 100 µM (inactive) | > 100 µM (inactive) | > 100 µM (inactive) | > 100 µM (inactive) | > 100 µM (inactive) | > 100 µM (inactive) | > 100 µM (inactive) | – | > 100 µM (inactive)
17 | Cc1cc(S(=O)(=O)Nc2nc3ccsc3c(=O)n2N)c(S)cc1Cl | 68.7 µM (inactive) | > 100 µM (inactive) | – | 56.9 µM (inactive) | 76.2 µM (inactive) | > 100 µM (inactive) | 53.2 µM (inactive) | – | 50.7 µM | > 100 µM (inactive) | > 100 µM (inactive) | 83.8 µM (inactive) | > 100 µM (inactive) | 64.3 µM (inactive) | 39.9 µM (inactive) | > 100 µM (inactive) | > 100 µM (inactive) | 34.6 µM (inactive) | > 100 µM (inactive)
